Test results taken from the supplement of paper PMC10307832.

How the values were obtained:
Assay in all cases: relative viability (nuclei count vs DMSO), 5 days (fraction); higher = more cells survive
Alisertib + Tozasertib = compound: COc1cc(Nc2ncc3c(n2)-c2ccc(Cl)cc2C(c2c(F)cccc2OC)=NC3)ccc1C(=O)O [Alisertib] + Cc1cc(Nc2cc(N3CCN(C)CC3)nc(Sc3ccc(NC(=O)C4CC4)cc3)n2)n[nH]1 [Tozasertib] (partner 0.1 µM)
How it was run: (§1)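 Lung cancer cell lines in 1536-well plates got either a single drug or a fixed anchor-drug dose together with five library-drug doses (not always all listed) in √10 steps, by pin tool, on the day after seeding. Nuclei were counted after 5 days, and relative viability is the treated-to-vehicle ratio of nuclei counts. Values are medians of duplicate plates.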

Alisertib + Foretinib = compound: COc1cc(Nc2ncc3c(n2)-c2ccc(Cl)cc2C(c2c(F)cccc2OC)=NC3)ccc1C(=O)O [Alisertib] + COc1cc2c(Oc3ccc(NC(=O)C4(C(=O)Nc5ccc(F)cc5)CC4)cc3F)ccnc2cc1OCCCN1CCOCC1 [Foretinib] (partner 0.25 µM)
How it was run: as §1

Alisertib + AZD7762 = compound: COc1cc(Nc2ncc3c(n2)-c2ccc(Cl)cc2C(c2c(F)cccc2OC)=NC3)ccc1C(=O)O [Alisertib] + NC(=O)Nc1cc(-c2cccc(F)c2)sc1C(=O)N[C@H]1CCCNC1 [AZD7762] (partner 0.2 µM)
How it was run: as §1

Alisertib + Luminespib = compound: COc1cc(Nc2ncc3c(n2)-c2ccc(Cl)cc2C(c2c(F)cccc2OC)=NC3)ccc1C(=O)O [Alisertib] + CCNC(=O)c1noc(-c2cc(C(C)C)c(O)cc2O)c1-c1ccc(CN2CCOCC2)cc1 [Luminespib] (partner 0.01 µM)
How it was run: as §1

Cell Line | relative viability (Alisertib + Tozasertib; first compound 0.005 µM) | relative viability (Alisertib + Tozasertib; first compound 0.01581 µM) | relative viability (Alisertib + Tozasertib; first compound 0.05 µM) | relative viability (Alisertib + Tozasertib; first compound 0.1581 µM) | relative viability (Alisertib + Tozasertib; first compound 0.5 µM) | relative viability (Alisertib + Foretinib; first compound 0.005 µM) | relative viability (Alisertib + Foretinib; first compound 0.01581 µM) | relative viability (Alisertib + Foretinib; first compound 0.05 µM) | relative viability (Alisertib + Foretinib; first compound 0.1581 µM) | relative viability (Alisertib + Foretinib; first compound 0.5 µM) | relative viability (Alisertib + AZD7762; first compound 0.005 µM) | relative viability (Alisertib + AZD7762; first compound 0.01581 µM) | relative viability (Alisertib + AZD7762; first compound 0.05 µM) | relative viability (Alisertib + AZD7762; first compound 0.1581 µM) | relative viability (Alisertib + AZD7762; first compound 0.5 µM) | relative viability (Alisertib + Luminespib; first compound 0.005 µM) | relative viability (Alisertib + Luminespib; first compound 0.01581 µM) | relative viability (Alisertib + Luminespib; first compound 0.05 µM) | relative viability (Alisertib + Luminespib; first compound 0.1581 µM) | relative viability (Alisertib + Luminespib; first compound 0.5 µM)
LC-2-ad | 0.441 | 0.367 | 0.366 | 0.338 | 0.323 | 0.803 | 0.597 | 0.503 | 0.351 | 0.285 | 0.768 | 0.5 | 0.224 | 0.185 | 0.15 | 0.892 | 0.435 | 0.39 | 0.392 | 0.32
LCLC-97TM1 | 0.203 | 0.185 | 0.166 | 0.181 | 0.149 | 0.91 | 0.707 | 0.379 | 0.253 | 0.182 | 0.192 | 0.307 | 0.207 | 0.103 | 0.0633 | 0.787 | 0.601 | 0.318 | 0.177 | 0.12
LCLC-103H | 0.432 | 0.42 | 0.223 | 0.247 | 0.26 | 0.759 | 0.544 | 0.283 | 0.272 | 0.236 | 0.711 | 0.767 | 0.764 | 0.41 | 0.322 | 0.949 | 0.883 | 0.278 | 0.311 | 0.269
LK-2 | 0.167 | 0.184 | 0.164 | 0.197 | 0.185 | 0.955 | 0.979 | 0.601 | 0.245 | 0.189 | 0.321 | 0.382 | 0.205 | 0.153 | 0.14 | 0.19 | 0.165 | 0.184 | 0.18 | 0.187
LOU-NH91 | 0.656 | 0.652 | 0.47 | 0.364 | 0.337 | 0.921 | 0.922 | 0.655 | 0.444 | 0.366 | 0.759 | 0.721 | 0.585 | 0.436 | 0.393 | 0.334 | 0.311 | 0.297 | 0.293 | 0.291
LU99A | 0.276 | 0.272 | 0.219 | 0.216 | 0.203 | 0.741 | 0.762 | 0.361 | 0.27 | 0.205 | 0.502 | 0.296 | 0.158 | 0.131 | 0.136 | 0.245 | 0.3 | 0.219 | 0.201 | 0.177
LXF-289 | 0.169 | 0.14 | 0.128 | 0.141 | 0.0869 | 0.858 | 0.675 | 0.218 | 0.187 | 0.157 | 0.922 | 0.637 | 0.682 | 0.163 | 0.138 | 0.455 | 0.325 | 0.16 | 0.0792 | 0.142
NCI-H23 | 0.27 | 0.249 | 0.165 | 0.208 | 0.15 | 0.759 | 0.452 | 0.269 | 0.235 | 0.211 | 0.194 | 0.139 | 0.127 | 0.135 | 0.0999 | 0.219 | 0.236 | 0.204 | 0.224 | 0.214
NCI-H322M | 0.394 | 0.491 | 0.506 | 0.453 | 0.509 | 0.896 | 0.925 | 0.649 | 0.402 | 0.397 | 0.435 | 0.565 | 0.47 | 0.393 | 0.395 | 0.84 | 0.671 | 0.475 | 0.37 | 0.452
NCI-H358 | 0.093 | 0.121 | 0.0917 | 0.0959 | 0.079 | 0.608 | 0.485 | 0.181 | 0.111 | 0.0732 | 0.424 | 0.433 | 0.183 | 0.175 | 0.165 | 0.321 | 0.243 | 0.133 | 0.114 | 0.105
NCI-H441 | 0.478 | 0.366 | 0.253 | 0.286 | 0.227 | 0.845 | 0.546 | 0.308 | 0.262 | 0.232 | 0.927 | 0.977 | 0.471 | 0.243 | 0.199 | 0.369 | 0.364 | 0.223 | 0.218 | 0.242
NCI-H460 | 0.477 | 0.428 | 0.0521 | 0.0419 | 0.0268 | 0.98 | 0.956 | 0.283 | 0.0899 | 0.0482 | 0.66 | 0.667 | 0.232 | 0.0611 | 0.0558 | 0.0403 | 0.0274 | 0.0247 | 0.0194 | 0.0287
NCI-H596 | 0.825 | 0.878 | 0.779 | 0.592 | 0.314 | 0.87 | 0.804 | 0.762 | 0.175 | 0.395 | 0.96 | 1.02 | 1.15 | 0.926 | 0.66 | 0.839 | 0.977 | 1.05 | 0.505 | 0.412
NCI-H647 | 0.345 | 0.261 | 0.125 | 0.152 | 0.101 | 1.08 | 1.04 | 0.691 | 0.301 | 0.131 | 0.314 | 0.367 | 0.103 | 0.0861 | 0.0503 | 0.151 | 0.132 | 0.0794 | 0.0983 | 0.0961
NCI-H650 | 0.653 | 0.481 | 0.253 | 0.185 | 0.165 | 0.926 | 0.902 | 0.407 | 0.226 | 0.222 | 0.772 | 0.738 | 0.37 | 0.255 | 0.259 | 0.685 | 0.579 | 0.239 | 0.126 | 0.198
NCI-H727 | 0.411 | 0.598 | 0.486 | 0.494 | 0.404 | 0.658 | 0.922 | 0.488 | 0.352 | 0.417 | 0.618 | 0.586 | 0.591 | 0.398 | 0.326 | 0.366 | 0.325 | 0.557 | 0.24 | 0.169
